# Values quoted from earlier work, collected in US20070015926A1, “Method of preparing R-(+)-alpha-lipoic acid and its salt” (Nanjing Rally Biochemical Inc., priority 2005, published 2007).
# Conditions: if given adequate oxygen
smiles,measurement,value
O=C(O)CCCC[C@@H]1CCSS1 [R-(+)-α-Lipoic Acid],polymerization,susceptible to be polymerized
